Experimental data published in patent publication US20250002477A1, “BENZIMIDAZOLE COMPOUND OR SALT THEREOF, CANINE FILARIASIS CONTROL AGENT CONTAINING SAME, AND METHOD OF USE THEREOF” (NIHON NOHYAKU CO., LTD., priority 2021, published 2025).

Tested on: L-1 stage larvae of canine filariae (Dirofilaria immitis)
Test: Impact evaluation test on larvae motility of canine filariae
Settings: final concentration of 50 ppm, 3 days, corrected for DMSO solution alone

## Clc1ccc(CCc2cn(-c3nc4ccccc4[nH]3)cn2)c(Cl)c1 [Compound 1-1, 2-(4-(2-(2,4-dichlorophenyl)ethyl)-1H-imidazol-1-yl)benzimidazole]
  activity level (corrected motility impediment rate): A (the corrected motility impediment rate is 100%)
